Test results as given in ChEMBL document CHEMBL1201862, “PubChem BioAssay data set” (2004).
Active and inactive are the calls of the source.

Assays:
[1] = target: T1, fMet-Leu-Phe receptor (Homo sapiens, UniProt P21462); assay: FPR ligands, dose response (AID 519); type: functional
T1 sequence (P21462 whole entry): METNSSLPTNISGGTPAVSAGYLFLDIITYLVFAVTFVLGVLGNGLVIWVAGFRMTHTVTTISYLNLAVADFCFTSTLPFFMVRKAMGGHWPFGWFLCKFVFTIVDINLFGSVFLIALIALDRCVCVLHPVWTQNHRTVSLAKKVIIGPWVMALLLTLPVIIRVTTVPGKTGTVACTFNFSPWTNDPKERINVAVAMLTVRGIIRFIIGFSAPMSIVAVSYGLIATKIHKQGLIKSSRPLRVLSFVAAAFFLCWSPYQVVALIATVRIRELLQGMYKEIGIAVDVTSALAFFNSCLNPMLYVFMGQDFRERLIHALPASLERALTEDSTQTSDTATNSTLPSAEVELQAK

[2] = target: T2, Estrogen receptor (Homo sapiens, UniProt P03372);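 further: potency for inhibiting coactivator peptide recruitment to the receptor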
T2 sequence (P03372 whole entry): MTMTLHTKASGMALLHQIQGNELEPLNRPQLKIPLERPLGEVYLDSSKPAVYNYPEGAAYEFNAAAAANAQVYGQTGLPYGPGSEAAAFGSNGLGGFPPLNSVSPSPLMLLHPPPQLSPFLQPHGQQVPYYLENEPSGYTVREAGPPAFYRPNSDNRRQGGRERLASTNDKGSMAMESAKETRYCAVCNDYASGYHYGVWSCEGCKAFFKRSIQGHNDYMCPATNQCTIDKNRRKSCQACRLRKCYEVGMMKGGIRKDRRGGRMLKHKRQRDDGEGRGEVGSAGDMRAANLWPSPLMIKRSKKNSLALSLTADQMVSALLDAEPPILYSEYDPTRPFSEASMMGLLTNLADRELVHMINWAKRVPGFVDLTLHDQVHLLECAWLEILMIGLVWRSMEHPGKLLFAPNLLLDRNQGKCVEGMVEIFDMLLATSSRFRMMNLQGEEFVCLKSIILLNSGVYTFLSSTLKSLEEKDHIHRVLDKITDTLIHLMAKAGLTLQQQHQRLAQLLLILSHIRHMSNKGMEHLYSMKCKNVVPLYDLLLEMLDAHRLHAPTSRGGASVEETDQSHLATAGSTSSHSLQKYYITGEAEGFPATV

[3] = target: Cytochrome P450 2C9 (Homo sapiens, UniProt P11712); conditions: Potency
Chain of Cytochrome P450 2C9 (P11712 whole entry): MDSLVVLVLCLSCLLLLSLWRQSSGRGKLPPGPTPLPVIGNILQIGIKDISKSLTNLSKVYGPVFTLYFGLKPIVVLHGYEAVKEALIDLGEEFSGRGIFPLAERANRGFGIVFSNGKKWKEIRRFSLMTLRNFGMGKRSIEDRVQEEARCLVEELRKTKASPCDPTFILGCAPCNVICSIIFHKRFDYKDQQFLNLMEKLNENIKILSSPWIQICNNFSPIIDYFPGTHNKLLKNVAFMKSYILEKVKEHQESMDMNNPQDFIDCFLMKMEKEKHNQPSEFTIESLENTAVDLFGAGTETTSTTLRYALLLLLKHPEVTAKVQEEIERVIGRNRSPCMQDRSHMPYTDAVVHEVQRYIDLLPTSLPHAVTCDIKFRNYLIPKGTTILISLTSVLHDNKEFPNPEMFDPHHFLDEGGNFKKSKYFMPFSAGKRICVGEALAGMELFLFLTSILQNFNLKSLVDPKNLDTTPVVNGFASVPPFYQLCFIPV

[4] = HepG2 cell cytotoxicity, dose response, cytotoxicity control for non-replicating M. tuberculosis project (AID 489018); type: functional; conditions: Mycobacterium tuberculosis
[5] = THP-1 cell cytotoxicity, dose response, cytotoxicity control for non-replicating M. tuberculosis project (AID 489025); type: functional
[6] = cells; type: functional
[7] = Vero E6 cell cytotoxicity, dose response, cytotoxicity control for non-replicating M. tuberculosis project, secondary assay (AID 492998); type: functional, VeroE6; conditions: Vero C1008
[8] = system: Streptococcus; assay: Group A Streptococcus viability loss, dose response, counter-screen for streptokinase expression inhibitor project, luminescence, BacTiterGlo (AID 1915); type: functional, organism-based;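 further: potency for reduction of bacterial viability or growth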
[9] = system: Streptococcus sp. 'group A'; assay: growth inhibition of control SK(-) GAS strain, dose response, counter-screen for streptokinase expression inhibitor project, luminescence, kanamycin, BacTiterGlo, confirmation (AID 1900); type: functional, organism-based
[10] = system: HEK293; assay: cells; conditions: Homo sapiens
[11] = system: HEK293; assay: cells; conditions: Homo sapiens; remark: listed apart in the source
[12] = inhibitors of intracellular T. cruzi replication, confirmation, NIH3T3 host cells, beta-gal luminescence (AID 2044); type: functional, cell-based;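 further: intracellular parasites grown in NIH/3T3 mouse fibroblasts as host cells; luminescent beta-galactosidase reporter signal from transgenic T. cruzi replicating inside host cells; inhibitors lower the luminescence signal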
[13] = cytotoxicity toward NIH3T3 fibroblasts, dose response, counter-screen, cell-based, ATP luminescence, mouse fibroblasts (AID 2010); type: functional;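 further: cells exposed to compound for about 90 hours before reading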
[14] = target: Voltage-dependent T-type calcium channel subunit alpha-1H (Homo sapiens, UniProt O95180); type: functional;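 further: channel activity triggered by adding a high calcium stimulation buffer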
Chain of Voltage-dependent T-type calcium channel subunit alpha-1H (O95180 whole entry): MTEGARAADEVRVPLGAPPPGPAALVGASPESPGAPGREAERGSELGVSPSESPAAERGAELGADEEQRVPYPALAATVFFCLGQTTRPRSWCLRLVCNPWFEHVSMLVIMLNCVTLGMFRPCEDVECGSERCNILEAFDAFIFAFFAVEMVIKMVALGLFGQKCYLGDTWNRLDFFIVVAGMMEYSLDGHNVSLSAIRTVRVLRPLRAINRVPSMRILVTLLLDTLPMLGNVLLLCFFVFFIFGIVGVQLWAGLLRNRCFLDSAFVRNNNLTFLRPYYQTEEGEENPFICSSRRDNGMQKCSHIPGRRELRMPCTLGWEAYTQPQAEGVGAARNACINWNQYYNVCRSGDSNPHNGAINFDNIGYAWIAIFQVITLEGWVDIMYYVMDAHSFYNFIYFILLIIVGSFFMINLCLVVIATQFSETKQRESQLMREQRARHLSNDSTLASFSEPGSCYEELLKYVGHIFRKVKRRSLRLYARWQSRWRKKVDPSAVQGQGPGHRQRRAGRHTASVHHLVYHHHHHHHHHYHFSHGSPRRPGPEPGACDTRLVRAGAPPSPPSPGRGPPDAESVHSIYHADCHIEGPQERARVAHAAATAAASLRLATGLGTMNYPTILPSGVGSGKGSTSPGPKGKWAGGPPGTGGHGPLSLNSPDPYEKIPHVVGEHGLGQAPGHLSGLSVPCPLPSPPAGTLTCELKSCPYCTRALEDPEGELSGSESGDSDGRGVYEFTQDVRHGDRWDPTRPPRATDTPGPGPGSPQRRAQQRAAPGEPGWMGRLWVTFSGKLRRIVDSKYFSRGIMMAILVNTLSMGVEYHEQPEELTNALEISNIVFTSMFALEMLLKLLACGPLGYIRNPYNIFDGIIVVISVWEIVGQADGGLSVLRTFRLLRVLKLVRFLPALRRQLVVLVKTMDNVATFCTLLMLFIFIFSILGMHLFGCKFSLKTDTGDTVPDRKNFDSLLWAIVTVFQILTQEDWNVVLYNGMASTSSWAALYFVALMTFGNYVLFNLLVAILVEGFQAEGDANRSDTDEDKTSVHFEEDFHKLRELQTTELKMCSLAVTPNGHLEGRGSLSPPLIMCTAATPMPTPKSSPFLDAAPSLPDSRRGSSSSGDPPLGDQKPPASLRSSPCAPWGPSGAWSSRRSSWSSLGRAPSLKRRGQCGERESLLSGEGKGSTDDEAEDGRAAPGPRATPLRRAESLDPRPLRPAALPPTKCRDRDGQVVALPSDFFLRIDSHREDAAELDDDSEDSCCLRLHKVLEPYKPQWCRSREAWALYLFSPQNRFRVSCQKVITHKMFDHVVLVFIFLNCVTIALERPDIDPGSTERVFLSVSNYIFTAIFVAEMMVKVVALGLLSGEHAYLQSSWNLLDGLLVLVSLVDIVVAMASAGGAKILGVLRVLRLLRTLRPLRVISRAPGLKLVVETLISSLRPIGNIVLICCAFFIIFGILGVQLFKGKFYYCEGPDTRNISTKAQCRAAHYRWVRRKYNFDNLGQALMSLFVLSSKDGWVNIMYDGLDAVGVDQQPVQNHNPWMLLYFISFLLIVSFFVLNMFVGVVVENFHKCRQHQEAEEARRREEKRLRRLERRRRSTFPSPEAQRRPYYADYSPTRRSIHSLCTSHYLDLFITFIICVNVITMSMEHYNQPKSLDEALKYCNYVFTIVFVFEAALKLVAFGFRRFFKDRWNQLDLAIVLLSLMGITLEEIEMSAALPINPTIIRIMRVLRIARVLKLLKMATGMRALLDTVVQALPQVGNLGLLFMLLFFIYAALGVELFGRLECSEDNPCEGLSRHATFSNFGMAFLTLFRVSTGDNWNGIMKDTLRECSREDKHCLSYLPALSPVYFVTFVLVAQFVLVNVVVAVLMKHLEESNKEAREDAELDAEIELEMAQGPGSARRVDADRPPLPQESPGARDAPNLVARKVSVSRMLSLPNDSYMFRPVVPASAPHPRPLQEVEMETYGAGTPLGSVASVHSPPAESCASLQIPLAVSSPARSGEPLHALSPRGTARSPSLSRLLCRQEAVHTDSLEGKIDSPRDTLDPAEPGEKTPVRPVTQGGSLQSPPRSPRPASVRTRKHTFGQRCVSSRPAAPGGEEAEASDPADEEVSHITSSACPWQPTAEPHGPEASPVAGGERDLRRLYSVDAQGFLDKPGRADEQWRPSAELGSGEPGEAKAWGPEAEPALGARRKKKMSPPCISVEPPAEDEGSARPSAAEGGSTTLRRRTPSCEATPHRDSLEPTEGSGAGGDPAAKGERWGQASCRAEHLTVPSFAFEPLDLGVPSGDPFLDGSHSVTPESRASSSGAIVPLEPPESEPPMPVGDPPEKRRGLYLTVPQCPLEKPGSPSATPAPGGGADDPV

[15] = system: INS1; assay: beta cell apoptosis inhibitors, cytokine rescue, dose response, luminescence, retest (AID 449756); type: functional, cell-based; conditions: Rattus norvegicus;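 further: cell death triggered by IL-1 beta plus TNF-alpha plus IFN-gamma mixture; protective hits raise ATP signal compared with cytokine alone wells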
[16] = HeLa cell cytotoxicity, dose response, cytotoxicity control for MgcRacGAP inhibitor project (AID 624300); type: functional
[17] = system: A-375; assay: MITF: Counter assay: A375 proliferation Measured in Cell-Based System Using Plate Reader - 2084-03_Inhibitor_Dose_DryPowder_Activity. [Related pubchem assays (depositor defined):AID488944]; type: functional; conditions: Homo sapiens
[18] = Luminescence Cell-Based Dose Retest to Confirm Inhibitors of Cancer Stem Cells. [Related pubchem assays (depositor defined):AID2717, AID2721]; type: functional; conditions: Homo sapiens
[19] = HepG2 cell cytotoxicity, dose response, cytotoxicity control for Shn3 inhibitor project, CellTiter-Glo, cherry-picked (AID 624134); type: functional, cell-based
[20] = control 3'UTR Renilla luciferase suppression, dose response, counter-screen for Shn3 inhibitor project, cell-based, Clone20-Shn3RL, cherry-picked (AID 624133); type: functional
[21] = Shn3 3'UTR reporter inhibitors, dose response, cell-based, Clone20 osteoblasts, firefly luciferase, cherry-picked (AID 624132); type: functional;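 further: firefly luciferase luminescence from reporter carrying the Shn3 3'UTR in osteoblasts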
[22] = target: T3, Microphthalmia-associated transcription factor (Homo sapiens, UniProt O75030); assay: TRPM1 promoter luciferase signal decrease, dose response, MITF inhibitor project, cell-based, SK-MEL-5, cherry-picked, set 3 (AID 493073); type: functional
T3 sequence (O75030 whole entry): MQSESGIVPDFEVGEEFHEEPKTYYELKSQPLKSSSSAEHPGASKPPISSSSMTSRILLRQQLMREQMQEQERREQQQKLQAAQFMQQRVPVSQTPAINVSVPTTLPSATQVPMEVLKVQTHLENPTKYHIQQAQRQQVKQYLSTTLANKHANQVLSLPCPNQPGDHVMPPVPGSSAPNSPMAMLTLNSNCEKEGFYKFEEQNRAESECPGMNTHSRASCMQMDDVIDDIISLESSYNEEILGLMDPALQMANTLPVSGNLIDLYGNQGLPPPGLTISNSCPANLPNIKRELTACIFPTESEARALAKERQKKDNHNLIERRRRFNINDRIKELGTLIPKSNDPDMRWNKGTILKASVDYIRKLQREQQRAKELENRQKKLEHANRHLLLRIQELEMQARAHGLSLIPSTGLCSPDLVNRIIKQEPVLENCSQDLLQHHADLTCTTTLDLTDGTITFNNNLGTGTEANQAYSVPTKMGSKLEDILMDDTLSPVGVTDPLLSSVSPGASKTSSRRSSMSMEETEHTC

[23] = system: Vero; assay: Vero E6 cell cytotoxicity, SAR follow-up, cytotoxicity control for West Nile virus antiviral project, synthesized analogs (AID 2244); type: functional; conditions: Chlorocebus sabaeus
[24] = target: Glyceraldehyde-3-phosphate dehydrogenase (Homo sapiens, UniProt P04406)
Chain of Glyceraldehyde-3-phosphate dehydrogenase (P04406 whole entry): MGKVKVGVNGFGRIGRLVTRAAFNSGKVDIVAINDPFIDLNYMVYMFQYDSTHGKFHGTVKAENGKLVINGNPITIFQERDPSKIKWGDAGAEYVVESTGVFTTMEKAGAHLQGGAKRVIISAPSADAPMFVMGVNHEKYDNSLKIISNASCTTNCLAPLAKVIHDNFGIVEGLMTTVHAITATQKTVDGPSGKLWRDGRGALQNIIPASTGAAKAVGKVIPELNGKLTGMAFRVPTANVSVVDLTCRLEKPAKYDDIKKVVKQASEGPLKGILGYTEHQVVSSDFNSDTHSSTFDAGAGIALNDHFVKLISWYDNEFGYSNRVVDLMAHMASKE

[25] = target: T4, Alkaline phosphatase, tissue-nonspecific isozyme (Homo sapiens, UniProt P05186); assay: human TNAP enzyme inhibitors, SAR follow-up, biochemical, luminescent, dose response (AID 1056)
T4 sequence (P05186 whole entry): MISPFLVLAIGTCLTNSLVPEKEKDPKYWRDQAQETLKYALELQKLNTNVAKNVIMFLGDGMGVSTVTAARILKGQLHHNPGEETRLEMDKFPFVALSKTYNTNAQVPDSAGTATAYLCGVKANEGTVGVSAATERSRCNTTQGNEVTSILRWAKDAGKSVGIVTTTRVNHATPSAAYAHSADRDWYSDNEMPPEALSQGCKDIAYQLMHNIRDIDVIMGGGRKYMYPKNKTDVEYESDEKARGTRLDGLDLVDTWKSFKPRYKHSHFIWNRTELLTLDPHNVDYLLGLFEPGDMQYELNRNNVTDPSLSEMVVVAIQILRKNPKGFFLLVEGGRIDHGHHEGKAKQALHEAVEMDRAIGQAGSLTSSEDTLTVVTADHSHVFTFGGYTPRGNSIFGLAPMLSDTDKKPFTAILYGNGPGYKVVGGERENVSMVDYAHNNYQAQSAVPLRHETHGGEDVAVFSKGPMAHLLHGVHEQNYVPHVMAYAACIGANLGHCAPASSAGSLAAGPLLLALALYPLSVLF

[26] = cytotoxicity in HEK-293T cells, dose response, cytotoxicity control for TCR NF-kB inhibitor project, luminescence, T-cell screen hits (AID 489026); type: functional, cell-based;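 further: cells exposed to compound about 14 hours before the viability readout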

CCCCC1C(=O)N(c2ccccc2)N(c2ccccc2)C1=O [PHENYLBUTAZONE]
Ki [1]: 5.3 µM (active) | IC50 [2]: > 50 µM (not active) | AC50 [3]: 31.6 µM (inconclusive)

CN(c1ccccc1)S(=O)(=O)c1ccc(C(=O)Nc2nnc(-c3ccc(F)cc3)o2)cc1
CC50 [4]: 15.6 µM (active) | CC50 [5]: 17.2 µM (active) | IC50 [6]: > 50 µM (active) | CC50 [7]: 7.81 µM (active) | EC50 [8]: 2.93 µM (active) | EC50 [9]: 0.159 µM (active)

CCC(C)(C)n1nnnc1C(c1ccc(C)cc1)N(Cc1ccco1)Cc1cccs1 (centres undefined)
EC50 [10]: > 59.6 µM (inactive) | EC50 [11]: > 59.6 µM (inactive) | EC50 [12]: 2.86 µM (active) | EC50 [13]: > 60 µM (not active) | EC50 [14]: 6.74 µM (active)

Cc1ccn2c(Nc3ccccc3)c(-c3ccccn3)nc2c1
AC50 [15]: 5.31 µM (active) | CC50 [16]: 50 µM (active) | CC50 [4]: > 20 µM (active) | AC50 [17]: 38.1 µM (active) | CC50 [5]: 6.44 µM (active) | IC50 [6]: 3.88 µM (active) | AC50 [18]: 4.95 µM (active) | AC50 [19]: 7.07 µM (active) | CC50 [7]: 4.64 µM (active) | EC50 [12]: 1.16 µM (active) | EC50 [13]: 2.91 µM (active) | AC50 [20]: 3.25 µM (active) | AC50 [21]: 2.31 µM (active) | AC50 [22]: 9.31 µM (active)

COc1ccc(-c2csc(NC(=O)c3cccc(Cl)c3)n2)cc1
CC50 [23]: > 40 µM (active)

Cc1ccc(S(=O)(=O)Nc2cnc3ccccc3c2)c(C)c1C
IC50 [24]: > 100 µM (not active) | IC50 [25]: > 100 µM (inactive)

CC(=O)Nc1ccc(S(=O)(=O)N2CCCc3ccccc32)cc1
IC50 [26]: > 80 µM (inactive)

O=S(=O)(Nc1cnc2ccccc2c1)c1cc(Cl)ccc1F
IC50 [24]: > 100 µM (not active) | IC50 [25]: 4.26 µM (active)
